Results on 34 molecules are retold here after patent publication US10538532B2, “Hepatitis B antiviral agents” (ENANTA PHARMACEUTICALS, INC., priority 2016, dated 2020).

Series [1] deals with HBV. The experiment in a line: HepAD38 antiviral assay: reduction of viral product accumulation (virion DNA by qPCR, HBsAg or HBeAg by ELISA). It counts as cell-based, hepatitis B virus. The settings on record: HepAD38 cells, five days after compound addition, concentration reducing viral product accumulation by 50% relative to no drug controls, read-out: HepAD38 EC50. In outline: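 EC50 values represent 50% reduction of viral product accumulation in lysates or supernatants relative to untreated controls, with virion DNA read by qPCR and HBsAg/HBeAg by ELISA. Measurements followed 5 days of treatment, or 8 days with compound renewed on d2 and d5. Cells were tetracycline-depleted HepAD38 at 35,000/well, dosed with a 1:200 dilution of DMSO stocks.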
(Real-time PCR tracks product formation cycle by cycle.)

Series [2] in a line: Compound toxicity, ATPLite total ATP levels. The settings on record: human, HepAD38 cells, three days after compound addition, concentration reducing total ATP levels by 50% relative to no drug controls. It counts as cell-based. The procedure:
Methods: HepAD38 cells are maintained as previously reported (Ladner et al, Antimicrob. Agents Chemother. 1997, […], 1715). Briefly, cells are passaged upon attaining confluency in DMEM/F12 media in the presence of 10% FBS, Penn/Strep, 250 μg/mL G418, and 1 ug/ml tetracycline. Novel compounds are screened by first washing cells three times with PBS to remove tetracycline, and plating in 96 well plates at 35,000 cells/well. Compounds dissolved in DMSO are then diluted 1:200 into wells containing cells. Five days after compound addition, material is harvested for analysis. For an extended 8 day analysis, cells are plated and treated as described above, but media and compound are refreshed on d2 and d5 post initial treatment.
Compound toxicity is evaluated by seeding cells at 15,000 cells/well and treating with compound as described above.
(Cellular ATP, detected with luciferase, serves as a proxy for viable cell number.)

Setting [3] is: Hepatitis B virus, HePAD38, 120 h.

Read-outs that look alike come from different tables or passages of the source. Where only a bound is given, the exact number is not on record here.

By EC50 is commonly meant the midpoint of the concentration-response curve. In general, CC50 refers to the concentration giving 50% cytotoxicity. Higher therefore signals better tolerance by the cells.

With `[N-]=[N+]=NC[C@]1(O)C2CCC1C[C@@H](S(=O)(=O)c1cc(C(=O)Nc3cc(F)c(F)c(F)c3)ccc1Cl)C2` [Example 257], the EC50 in series [1] (setting [3]) was < 100 nM. Besides, the CC50 at 3 days in series [2] (class symbols) was > 25000 nM.
For `O=C(Nc1cc(F)c(F)c(F)c1)c1ccc(Cl)c(S(=O)(=O)[C@H]2CC3CCC(C2)[C@@]3(O)c2nccs2)c1` [Example 301], the EC50 in series [1] (setting [3]) was > 400 nM. Further, the CC50 at 3 days in series [2] (class symbols) was in the range of 10000 to 25000 nM.
In the case of `O=C(Nc1cc(F)c(F)c(F)c1)c1ccc(Cl)c(S(=O)(=O)[C@H]2CC3CCC(C2)[C@]3(O)c2ccccn2)c1` [Example 308], the EC50 in series [1] (setting [3]) is < 100 nM. Besides, the CC50 at 3 days in series [2] (class symbols) is > 25000 nM.
On the same counts, the results for `O=C(Nc1cc(F)c(F)c(F)c1)c1ccc(Cl)c(S(=O)(=O)[C@H]2C3CC[C@H]2C[C@@H](c2ncc[nH]2)C3)c1` [Example 283] are 100 to 400 nM and < 10000 nM.
On the same counts, the results for `CS(=O)(=O)N[C@@H]1C2CC[C@H]1C[C@H](S(=O)(=O)c1cc(C(=O)Nc3cc(F)c(F)c(F)c3)ccc1Cl)C2` [Example 310] are < 100 nM and > 25000 nM.
Consider `[N-]=[N+]=NC[C@]1(O)C2CCC1C[C@H](S(=O)(=O)c1cc(C(=O)Nc3cc(F)c(F)c(F)c3)ccc1Cl)C2` [Example 258], for which the EC50 in series [1] (setting [3]) was < 100 nM. In addition, the CC50 at 3 days in series [2] (numeric bounds) is > 12500 nM.
On to `O=C1NC[C@@]2(CC3CC[C@@H](C2)[C@H]3S(=O)(=O)c2cc(C(=O)Nc3cc(F)c(F)c(F)c3)ccc2Cl)O1` [Example 306], for which, in series [1] (setting [3]), the EC50 was < 100 nM. In addition, the CC50 at 3 days in series [2] (numeric bounds) was > 12500 nM.
On the same counts, the results for `CC1=NO[C@@]2(C1)CC1CC[C@@H](C2)[C@H]1S(=O)(=O)c1cc(C(=O)Nc2cc(F)c(F)c(F)c2)ccc1Cl` [Example 188] are < 100 nM and > 12500 nM.
Consider `O=C(Nc1cc(F)c(F)c(F)c1)c1ccc(Cl)c(S(=O)(=O)[C@H]2CC3CCC(C2)[C@]3(O)c2ccncc2)c1` [Example 332], for which the EC50 in series [1] (setting [3]) is < 100 nM. The molecule further registered a CC50 at 3 days in series [2] (class symbols) of 10000 to 25000 nM.
On the same counts, the results for `[N-]=[N+]=N[C@]1(CO)CC2CC[C@@H](C1)[C@H]2S(=O)(=O)c1cc(C(=O)Nc2cc(F)c(F)c(F)c2)ccc1Cl` [Example 287] are 100 to 400 nM and > 25000 nM.
Turning to `CS(=O)(=O)NC[C@]1(O)C2CCC1C[C@@H](S(=O)(=O)c1cc(C(=O)Nc3cc(F)c(F)c(F)c3)ccc1Cl)C2` [Example 259], the EC50 in series [1] (setting [3]) was < 100 nM. Besides, in series [2] (numeric bounds), the CC50 at 3 days was > 12500 nM.
On the same counts, the results for `CC(C)(C)OC(=O)NC1CC2CC[C@@H](C1)[C@H]2S(=O)(=O)c1cc(C(=O)Nc2cc(F)c(F)c(F)c2)ccc1Cl` (some centres unmarked) [Example 297] are < 100 nM and > 6250 nM.
Consider `O=C(Nc1cc(F)c(F)c(F)c1)c1ccc(Cl)c(S(=O)(=O)CCCO)c1` [Example 7], for which the EC50 in series [1] (setting [3]) is > 400 nM. Besides, the CC50 at 3 days in series [2] (class symbols) was > 25000 nM.
On the same counts, the results for `O=C1NC[C@]2(CC3CC[C@@H](C2)[C@H]3S(=O)(=O)c2cc(C(=O)Nc3cc(F)c(F)c(F)c3)ccc2Cl)O1` [Example 285] are 100 to 400 nM and > 25000 nM.
On the same counts, the results for `C[C@]1(O)CC2CC[C@@H](C1)[C@H]2S(=O)(=O)c1cc(C(=O)Nc2cc(F)c(F)c(F)c2)ccc1Cl` [Example 282] are < 100 nM and > 25000 nM.
On the same counts, the results for `O=C1NC[C@]2(O1)C1CCC2C[C@H](S(=O)(=O)c2cc(C(=O)Nc3cc(F)c(F)c(F)c3)ccc2Cl)C1` [Example 274] are < 100 nM and > 25000 nM.
For the molecule `C[C@]1(O)C2CCC1C[C@H](S(=O)(=O)c1cc(C(=O)Nc3cc(F)c(F)c(F)c3)ccc1Cl)C2` [Example 253], the EC50 in series [1] is < 100 nM. The CC50 at 3 days in series [2] (class symbols) was > 25000 nM.
On to `O=C(Nc1cc(F)c(F)c(F)c1)c1ccc(Cl)c(S(=O)(=O)Cc2ccccn2)c1` [Example 48], for which the EC50 in series [1] (setting [3]) is > 400 nM. In addition, the CC50 at 3 days in series [2] (class symbols) is > 25000 nM.
As to `O=C(Nc1cc(F)c(F)c(F)c1)c1ccc(Cl)c(S(=O)(=O)C2CC[C@H](O)[C@@H](O)CC2)c1` [Example 84], the EC50 in series [1] (setting [3]) is < 100 nM. Moreover, the CC50 at 3 days in series [2] (class symbols) is > 25000 nM.
On the same counts, the results for `CC(c1ccncc1)S(=O)(=O)c1cc(C(=O)Nc2cc(F)c(F)c(F)c2)ccc1Cl` (centres unmarked) [Example 80] are < 100 nM and 10000 to 25000 nM.
For `C=CCOC(=O)OC[C@]1(O)CC2CC[C@@H](C1)[C@H]2S(=O)(=O)c1cc(C(=O)Nc2cc(F)c(F)c(F)c2)ccc1Cl` [Example 290], in series [1] (setting [3]), the EC50 was < 100 nM. In addition, the CC50 at 3 days in series [2] (class symbols) was > 25000 nM.
Take `[N-]=[N+]=NC[C@@]1(O)CC2CC[C@@H](C1)[C@H]2S(=O)(=O)c1cc(C(=O)Nc2cc(F)c(F)c(F)c2)ccc1Cl` [Example 271]: the EC50 in series [1] (setting [3]) is < 100 nM. In series [2] (numeric bounds), the CC50 at 3 days was > 12500 nM.
For the molecule `O=C(Nc1cc(F)c(F)c(F)c1)c1ccc(Cl)c(S(=O)(=O)[C@]2(F)CC[C@@H](O)CC2)c1` [Example 9], the EC50 in series [1] (setting [3]) lay in the range of 100 to 400 nM. The same molecule registered a CC50 at 3 days in series [2] (class symbols) of 10000 to 25000 nM.
On the same counts, the results for `O=C(Nc1cc(F)c(F)c(F)c1)c1ccc(Cl)c(S(=O)(=O)[C@H]2C3CC[C@H]2C[C@](O)(COCCO)C3)c1` [Example 319] are < 100 nM and > 25000 nM.
On the same counts, the results for `O=C(Nc1cc(F)c(F)c(F)c1)c1ccc(Cl)c(S(=O)(=O)[C@H]2CC3CCC(C2)[C@]3(O)c2cccnc2)c1` [Example 331] are < 100 nM and 10000 to 25000 nM.
In the case of `NC[C@@]1(O)CC2CC[C@@H](C1)[C@H]2S(=O)(=O)c1cc(C(=O)Nc2cc(F)c(F)c(F)c2)ccc1Cl` [Example 277], the EC50 in series [1] (setting [3]) lay in the range of 100 to 400 nM. The CC50 at 3 days in series [2] (class symbols) was < 10000 nM.
On the same counts, the results for `O=C(Nc1cc(F)c(F)c(F)c1)c1ccc(Cl)c(S(=O)(=O)[C@H]2C3CC[C@H]2C[C@](O)(c2ncc[nH]2)C3)c1` [Example 281] are < 100 nM and > 25000 nM.
On to `COC(=O)N[C@@H](C(=O)NC1CC2CC[C@@H](C1)[C@H]2S(=O)(=O)c1cc(C(=O)Nc2cc(F)c(F)c(F)c2)ccc1Cl)C(C)C` (some centres unmarked) [Example 300], for which, in series [1] (setting [3]), the 50% effective concentration (EC50) is < 100 nM. Also, the CC50 at 3 days in series [2] (numeric bounds) is > 6250 nM.
Turning to `C[C@]1(S(=O)(=O)c2cc(C(=O)Nc3cc(F)c(F)c(F)c3)ccc2Cl)CC[C@@H](O)CC1` [Example 16], the EC50 in series [1] (setting [3]) was 100 to 400 nM. The CC50 at 3 days in series [2] (class symbols) is > 25000 nM.
`O=C(Nc1cc(F)c(F)c(F)c1)c1ccc(Cl)c(S(=O)(=O)[C@H]2CC3CCC(C2)[C@]3(O)CNS(=O)(=O)c2ccccn2)c1` [Example 296]: in series [1] (setting [3]), the EC50 is < 100 nM. For the same molecule, in series [2] (numeric bounds), the 50% cytotoxic concentration (CC50) at 3 days is > 6250 nM.
As for `N#C[C@H]1CC2CC[C@@H](C1)[C@H]2S(=O)(=O)c1cc(C(=O)Nc2cc(F)c(F)c(F)c2)ccc1Cl` [Example 284], the EC50 in series [1] (setting [3]) was < 100 nM. Moreover, the CC50 at 3 days in series [2] (numeric bounds) is > 3120 nM.
For the molecule `O=C(Nc1cc(F)c(F)c(F)c1)c1ccc(Cl)c(S(=O)(=O)[C@H]2CC[C@@H](O)CC2)c1` [Example 4], in series [1] (setting [3]), the EC50 lay within 100 to 400 nM. Moreover, the CC50 at 3 days in series [2] (class symbols) was > 25000 nM.
Turning to `O=C(Nc1cc(F)c(F)c(F)c1)c1ccc(Cl)c(S(=O)(=O)[C@H]2C3CC[C@H]2C[C@](O)(c2ncc(-c4ccccc4)[nH]2)C3)c1` [Example 330], in series [1] (setting [3]), the EC50 was < 100 nM. In addition, in series [2] (class symbols), the CC50 at 3 days is < 10000 nM.
In the case of `COC(=O)N[C@H](C(=O)NC[C@@]1(O)CC2CC[C@@H](C1)[C@H]2S(=O)(=O)c1cc(C(=O)Nc2cc(F)c(F)c(F)c2)ccc1Cl)C(C)C` [Example 288], the concentration for a half-maximal effect (EC50) in series [1] (setting [3]) fell in the range of 100 to 400 nM. Moreover, the CC50 at 3 days in series [2] (class symbols) lay within 10000 to 25000 nM.
